The values below come from ChEMBL document CHEMBL5241120, “Insights into the medicinal chemistry of heterocycles integrated with a pyrazolo[1,5-a]pyrimidine scaffold” (RSC Med Chem, 2022).

SMILES strings stand for the structures.

Assay [1] relates to Mus musculus. Description: Antiinflammatory activity in mouse assessed as inhibition of paw edema after 4 hrs. Type of assay: functional. The arrangement: scale not given: the % may be the effect or the level left.
The test system of a further assay is Candida tropicalis. Description: Antifungal activity against Candida tropicalis assessed as zone of inhibition. Type of assay: functional.
The test system of assay [2] is RAW264.7. Description: Antiinflammatory activity in mouse RAW264.7 cells assessed as decrease in IL-6 secretion. Type of assay: functional. The arrangement: scale not given: the % may be the effect or the level left.
Assay [3] relates to Rattus norvegicus. Description: Antiinflammatory activity in rat assessed as inhibition of carrageenan induced paw edema. Type of assay: functional. Background: The carrageenan paw model is a standard test of acute inflammation.
For assay [4], the system named is RAW264.7. Description: Antiinflammatory activity in mouse RAW264.7 cells assessed as decrease in TNFalpha secretion. Type of assay: functional. The arrangement: scale not given: the % may be the effect or the level left.
The subject of assay [5] is Rattus norvegicus. Description: Antiinflammatory activity in rat assessed as inhibition of carrageenan induced paw edema at 50 mg/kg. Type of assay: functional. The arrangement: scale not given: the % may be the effect or the level left.
Assay [6] has as its target T1, Prostaglandin G/H synthase 1 (Ovis aries, UniProt P05979).
T1 sequence (P05979 whole entry): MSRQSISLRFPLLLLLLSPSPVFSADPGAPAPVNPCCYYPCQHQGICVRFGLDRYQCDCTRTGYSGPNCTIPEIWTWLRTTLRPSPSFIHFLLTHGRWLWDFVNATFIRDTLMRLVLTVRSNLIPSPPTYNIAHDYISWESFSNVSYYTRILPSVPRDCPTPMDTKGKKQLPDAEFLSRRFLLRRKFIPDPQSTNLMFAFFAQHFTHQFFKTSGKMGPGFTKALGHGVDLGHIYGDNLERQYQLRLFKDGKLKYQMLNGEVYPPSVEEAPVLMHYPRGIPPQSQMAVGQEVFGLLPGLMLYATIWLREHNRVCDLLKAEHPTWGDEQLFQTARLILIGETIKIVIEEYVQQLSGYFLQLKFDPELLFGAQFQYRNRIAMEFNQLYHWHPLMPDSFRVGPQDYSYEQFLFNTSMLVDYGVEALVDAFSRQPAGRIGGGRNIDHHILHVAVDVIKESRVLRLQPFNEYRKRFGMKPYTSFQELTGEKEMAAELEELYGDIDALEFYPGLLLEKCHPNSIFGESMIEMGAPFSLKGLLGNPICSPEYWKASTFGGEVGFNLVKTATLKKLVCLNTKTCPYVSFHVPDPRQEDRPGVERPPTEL
Description: Inhibition of ovine COX-1.

The nature of assay [7]: Inhibition of soybean 15-LOX. The arrangement: species or system Glycine max.
The test system of the next assay is Alternaria solani. Description: Antifungal activity against Alternaria solani assessed as inhibition of fungal growth at 50 ug/ml. Type of assay: functional. The arrangement: scale not given: the % may be the effect or the level left. The note with it: dose 50 µg/ml.
Another assay relates to Fusarium graminearum. Description: Antifungal activity against Gibberrella-zeave assessed as inhibition of fungal growth at 50 ug/ml. Type of assay: functional. The arrangement: scale not given: the % may be the effect or the level left. The note with it: dose 50 µg/ml.
For a further assay, the system named is Mycosphaerella arachidis. Description: Antifungal activity against Cercospora arachidicola assessed as inhibition of fungal growth at 50 ug/ml. Type of assay: functional. The arrangement: scale not given: the % may be the effect or the level left. The note with it: dose 50 µg/ml.
Another assay relates to Phomopsis asparagi. Description: Antifungal activity against Phoma asparagi assessed as inhibition of fungal growth at 50 ug/ml. Type of assay: functional. The arrangement: scale not given: the % may be the effect or the level left. The note with it: dose 50 µg/ml.
Assay [8] concerns Brassica rapa subsp. oleifera. Description: Antifungal activity against Brassica campestris assessed as inhibition of fungal growth at 10 ug/ml by cup plate diffusion method. Type of assay: functional. The arrangement: scale not given: the % may be the effect or the level left. The note with it: dose 10 µg/ml.
The subject of assay [9] is Brassica rapa subsp. oleifera. Description: Antifungal activity against Brassica campestris assessed as inhibition of fungal growth at 100 ug/ml by cup plate diffusion method. Type of assay: functional. The arrangement: scale not given: the % may be the effect or the level left. The note with it: dose 100 µg/ml.
In assay [10] the test system is Mus musculus. Description: Anxiolytic activity in mouse assessed as time spent in light at 1 mg/kg, po. Type of assay: functional.
Assay [11] relates to Mus musculus. Description: Anxiolytic activity in mouse assessed as transfer number at 1 mg/kg, po. Type of assay: functional.
A further assay has as its system Enterococcus faecalis. Description: Antibacterial activity against Enterococcus faecalis assessed as zone of inhibition at 5 mg/ml. Type of assay: functional. The note with it: read-out: IZ.
Assay [12] deals with Escherichia coli. Description: Antibacterial activity against Escherichia coli assessed as zone of inhibition at 5 mg/ml. Type of assay: functional. The note with it: read-out: IZ.
Another assay concerns Streptococcus mutans. Description: Antibacterial activity against Streptococcus mutans assessed as zone of inhibition at 5 mg/ml. Type of assay: functional. The note with it: read-out: IZ.
Assay [13] deals with Bacillus subtilis. Description: Antibacterial activity against Bacillus subtilis assessed as zone of inhibition at 5 mg/ml. Type of assay: functional. The note with it: read-out: IZ.
The subject of a further assay is Proteus vulgaris. Description: Antibacterial activity against Proteus vulgaris assessed as zone of inhibition at 5 mg/ml. Type of assay: functional. The note with it: read-out: IZ.
In another assay the test system is Staphylococcus aureus. Description: Antibacterial activity against Staphylococcus aureus assessed as zone of inhibition at 5 mg/ml. Type of assay: functional. The note with it: read-out: IZ.
Assay [14] has as its system Bacillus subtilis. Description: Antibacterial activity against Bacillus subtilis assessed as zone of inhibition. Type of assay: functional.
In a further assay the test system is Aspergillus clavatus. Description: Antifungal activity against Aspergillus clavatus assessed as zone of inhibition. Type of assay: functional.
The test system of assay [15] is Escherichia coli. Description: Antibacterial activity against Escherichia coli assessed as zone of inhibition. Type of assay: functional.
In another assay the test system is HCT-116. Description: Cytotoxicity against human HCT-116 cells. Type of assay: functional.
A further assay deals with Klebsiella pneumoniae. Description: Antibacterial activity against Klebsiella pneumoniae strain 13 assessed as bacterial inhibition at 0.5 mg/ml after 3 hrs. Type of assay: functional. The arrangement: scale not given: the % may be the effect or the level left.
Assay [16] concerns the target Gamma-aminobutyric acid receptor subunit alpha-1 (Homo sapiens, UniProt P14867). Description: Binding affinity to GABAA alpha1 (unknown origin).
Assay [17] relates to Mus musculus. Description: Anxiolytic activity in mouse assessed as time spent in light at 30 mg/kg, po. Type of assay: functional.
Assay [18] relates to Mus musculus. Description: Anxiolytic activity in mouse assessed as time spent in light at 3 mg/kg, po. Type of assay: functional.
The test system of assay [19] is Mus musculus. Description: Anxiolytic activity in mouse assessed as transfer number at 3 mg/kg, po. Type of assay: functional.
In assay [20] the test system is Mus musculus. Description: Anxiolytic activity in mouse assessed as transfer number at 10 mg/kg, po. Type of assay: functional.
Assay [21] concerns Mus musculus. Description: Anxiolytic activity in mouse assessed as transfer number at 30 mg/kg, po. Type of assay: functional.
Assay [22] has as its system Mus musculus. Description: Anxiolytic activity in mouse assessed as time spent in light at 10 mg/kg, po. Type of assay: functional.
For a further assay, the system named is A549. Description: Cytotoxicity against human A549 cells by MTT assay. Type of assay: functional, cell-based. (Tetrazolium assays rely on reduction of a dye to a coloured formazan, in cell work by metabolically active cells.)
A further assay relates to SiHa. Description: Cytotoxicity against human SiHa cells by MTT assay. Type of assay: functional, cell-based.
A further assay deals with MCF7. Description: Cytotoxicity against human MCF7 cells by MTT assay. Type of assay: functional, cell-based.
Another assay relates to COLO 205. Description: Cytotoxicity against human COLO 205 cells by MTT assay. Type of assay: functional, cell-based.

As usually defined, the ED50 is the midpoint of the dose-response relation. What is called IC50 is the midpoint of a concentration-inhibition curve. In general, Ki refers to the dissociation constant of the complex between target and ligand, obtained from inhibition or displacement.

Sequence of Gamma-aminobutyric acid receptor subunit alpha-1 (P14867 whole entry): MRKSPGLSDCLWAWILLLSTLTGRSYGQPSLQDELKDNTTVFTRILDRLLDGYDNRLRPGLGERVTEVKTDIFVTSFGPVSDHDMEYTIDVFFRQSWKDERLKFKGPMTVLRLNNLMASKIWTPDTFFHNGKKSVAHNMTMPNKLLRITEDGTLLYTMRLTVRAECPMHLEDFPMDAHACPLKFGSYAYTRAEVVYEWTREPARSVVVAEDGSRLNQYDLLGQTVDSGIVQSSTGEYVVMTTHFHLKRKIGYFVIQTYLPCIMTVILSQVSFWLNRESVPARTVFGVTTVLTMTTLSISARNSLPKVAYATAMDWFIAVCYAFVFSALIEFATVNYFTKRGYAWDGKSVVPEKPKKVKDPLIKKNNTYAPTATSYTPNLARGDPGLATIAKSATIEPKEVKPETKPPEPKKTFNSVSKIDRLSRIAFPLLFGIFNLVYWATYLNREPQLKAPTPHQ

As to `CC(C)Cc1ccc(C(C)C(=O)O)cc1` (stereo not given) [IBUPROFEN], the Activity in the assay with Mus musculus [1] is on record as 66.67%.
With `Cc1cc(NN2C(=O)c3ccccc3C2=O)n2ncc(C#N)c2n1`, the “inhibition zone (IZ)” value in the assay on Candida tropicalis came to 17.4 mm.
In the case of `COc1ccnc(Nc2nn3c(SC)c(C#N)c(O)nc3c2C#N)c1`, the Activity in the assay on RAW264.7 [2] came out at 80%; in the assay on RAW264.7 [4] it was 89%; in the assay with Rattus norvegicus [5], 46%. Also, the ED50 in the assay with Rattus norvegicus [3] was 35 mg/kg. Besides, the values for the IC50 in assay [6] and in assay [7] were 12600 nM and 18400 nM, respectively.
Consider `Cc1ccn2ncc(C#N)c2n1`, for which the Activity in the assay on Alternaria solani worked out at 45.1%; with Fusarium graminearum, 36.4%; with Mycosphaerella arachidis, 39.6%; in the assay with Phomopsis asparagi, 28.7%; in assay [8] it was 40.3%; in assay [9], 65.8%.
Regarding `CN1C(=O)CN=C(c2ccccc2)c2cc(Cl)ccc21` [DIAZEPAM], the Activity with Mus musculus [10] is recorded as 171.6%; in the assay with Mus musculus [11], 171.6.
In the case of `Cc1cc(C)nc(NS(=O)(=O)c2ccc(/N=N/c3c(N)nc4c(/N=N/c5ccc(F)cc5)c(N)nn4c3N)cc2)n1`, the zone of inhibition at 5000 µg/mL in the assay with Enterococcus faecalis, in the assay on Escherichia coli [12], with Streptococcus mutans, with Bacillus subtilis [13], with Proteus vulgaris and in the assay with Staphylococcus aureus was 9 mm each time.
In the case of `Cc1nc2c(c(C)nc3c(C#N)cnn32)c2c1CCO2`, the entries for the “inhibition zone (IZ)” value in the assay with Bacillus subtilis [14], in the assay with Aspergillus clavatus and in the assay on Escherichia coli [15] were 14.1 mm, 17.7 mm and 16.4 mm, respectively.
As to `COc1ccc(-c2cc3nccc(-c4ccccc4)n3n2)cc1`, the Activity with HCT-116 was found to be 26%.
`CCSc1nn2c3c(c(C)nc2c1C#N)Nc1ccccc1C(=O)N3C1CCCCC1`: the Activity in the assay with Klebsiella pneumoniae worked out at 100%.
The molecule `O=c1c(Cc2ccccc2)c[nH]c2c(-c3ccccn3)cnn12` came in with a Ki in [16] of 183 nM. Further, the Activity in the assay with Mus musculus [17] worked out at 164.4%; in the assay on Mus musculus [10], 113.9%; with Mus musculus [18], 145.2%; in the assay on Mus musculus [19] it was 21.3; with Mus musculus [20] it was 23.9; in the assay on Mus musculus [21], 28.9. In addition, the Activity in the assay on Mus musculus [22] worked out at 165.4%; in the assay on Mus musculus [11], 15.
As for `COc1ccc(-c2cc(-c3nn4cc(-c5ccncc5)cnc4c3S(=O)(=O)c3cc(OC)c(OC)c(OC)c3)on2)cc1`, the IC50 in the assay with A549 is 10 nM; in the assay on SiHa it was 180 nM; with MCF7, 10 nM; in the assay with COLO 205, 100 nM.
